Experimental data taken from the supplement of paper PMC4862054.
“And” between values parts separate entries of the source, which are not always exact repeats. Equal values may be shown once.

Legend:
Test in all cases: normalised viability (% of control), CellTiter-Blue; higher = more viable cells (about 100 = DMSO control)
Settings in all cases: incubation time: 72 h
HDQ-P1 [1] = test system: HDQ-P1
Protocol: (§1)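 DSRT, CellTiter-Blue viability, 72 h incubation. Signal is normalised to DMSO and benzethonium chloride controls. Value is the normalised response at dose 6.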

DU-4475 [2] = test system: DU-4475
Protocol: as §1

MDA-MB-453 [3] = test system: MDA-MB-453
Protocol: as §1

CAL-148 [4] = test system: CAL-148
Protocol: as §1

CAL-85-1 [5] = test system: CAL-85-1
Protocol: as §1

CAL-51 [6] = test system: CAL-51
Protocol: as §1

HDQ-P1 [7] = test system: HDQ-P1; remark: listed apart in the source
Protocol: (§2)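 DSRT, CellTiter-Blue viability, 72 h incubation. Signal is normalised to DMSO and benzethonium chloride controls. Value is the normalised response at dose 7.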

DU-4475 [8] = test system: DU-4475; remark: listed apart in the source
Protocol: as §2

MDA-MB-453 [9] = test system: MDA-MB-453; remark: listed apart in the source
Protocol: as §2

CAL-148 [10] = test system: CAL-148; remark: listed apart in the source
Protocol: as §2

CAL-85-1 [11] = test system: CAL-85-1; remark: listed apart in the source
Protocol: as §2

CAL-51 [12] = test system: CAL-51; remark: listed apart in the source
Protocol: as §2

Row | SMILES | normalised viability (HDQ-P1 [1]) | normalised viability (DU-4475 [2]) | normalised viability (MDA-MB-453 [3]) | normalised viability (CAL-148 [4]) | normalised viability (CAL-85-1 [5]) | normalised viability (CAL-51 [6]) | normalised viability (HDQ-P1 [7]) [%] | normalised viability (DU-4475 [8]) [%] | normalised viability (MDA-MB-453 [9]) [%] | normalised viability (CAL-148 [10]) [%] | normalised viability (CAL-85-1 [11]) [%] | normalised viability (CAL-51 [12]) [%]
1 | O=NN(CCCl)C(=O)NC1CCCCC1 [Lomustine] (300 nM) | 84.1% | 110% | 112% | 106% | 104% | 105% | – | – | – | – | – | –
2 | O=C(O)CC[C@H]1CC[C@@](c2cc(F)ccc2F)(S(=O)(=O)c2ccc(Cl)cc2)CC1 [MK-0752] (30 nM) | 93% | 117% | 103% | 115% | 100% | 106% | – | – | – | – | – | –
3 | NC1(c2ccc(-c3nc4ccn5c(=O)[nH]nc5c4cc3-c3ccccc3)cc2)CCC1 [MK-2206] (30 nM) | 69.6% | 103% | 99.4% | 97.4% | 96.2% | 101% | – | – | – | – | – | –
4 | NC(=O)c1cccc2cn(-c3ccc([C@@H]4CCCNC4)cc3)nc12 [MK-4827] (300 nM) | 75.7% | 73.6% | 106% | 101% | 96.8% | 100% | – | – | – | – | – | –
5 | N[C@@H](Cc1ccc(N(CCCl)CCCl)cc1)C(=O)O [Melphalan] (29.7 nM) | 81.1% | 102% | 110% | 98.7% | 88.3% | 104% | – | – | – | – | – | –
6 | N[C@@H](Cc1ccc(N(CCCl)CCCl)cc1)C(=O)O [Melphalan] (99 nM) | – | – | – | – | – | – | 100 | 86.2 | 101 | 106 | 79.4 | 109
7 | Cc1c(C(=O)Nc2ccc(N3C[C@@H](C)O[C@@H](C)C3)nc2)cccc1-c1ccc(OC(F)(F)F)cc1 [NVP-LDE225] (300 nM) | 36.5% | 101% | 88.1% | 95.2% | 108% | 105% | – | – | – | – | – | –
8 | Cc1c(C(=O)Nc2ccc(N3C[C@@H](C)O[C@@H](C)C3)nc2)cccc1-c1ccc(OC(F)(F)F)cc1 [NVP-LDE225] (1000 nM) | – | – | – | – | – | – | 90.1 | 118 | 92.9 | 107 | 98.8 | 99.5
9 | O=C(c1cc(Cc2n[nH]c(=O)c3ccccc23)ccc1F)N1CCN(C(=O)C2CC2)CC1 [Olaparib] (300 nM) | 73.9% | 83.2% | 98% | 85.3% | 92.2% | 93.2% | – | – | – | – | – | –
10 | CO[C@H](C(=O)[C@@H](O)[C@@H](C)O)[C@@H]1Cc2cc3cc(O[C@H]4C[C@@H](O[C@@H]5C[C@@H](O)[C@H](O)[C@@H](C)O5)[C@H](O)[C@@H](C)O4)c(C)c(O)c3c(O)c2C(=O)[C@H]1O[C@H]1C[C@@H](O[C@@H]2C[C@@H](O)[C@@H](O[C@@H]3C[C@](C)(O)[C@H](O)[C@@H](C)O3)[C@@H](C)O2)[C@H](O)[C@@H](C)O1 [Plicamycin] (300 nM) | 32.7% and 20.9% | 0.65% and -0.39% | 17.4% and 13.2% | 2.94% and 7.64% | 13% and 11.5% | 18.3% and 13.9% | – | – | – | – | – | –
11 | C[C@]12C=CC(=O)C=C1CC[C@@H]1[C@@H]2C(=O)C[C@@]2(C)[C@H]1CC[C@]2(O)C(=O)CO [Prednisone] (300 nM) | 50.2% | 108% | 91.8% | 102% | 102% | 104% | – | – | – | – | – | –
12 | CO[C@H]1C[C@@H]2CC[C@@H](C)[C@@](O)(O2)C(=O)C(=O)N2CCCC[C@H]2C(=O)O[C@H]([C@H](C)C[C@@H]2CC[C@@H](O)[C@H](OC)C2)CC(=O)[C@H](C)/C=C(\C)[C@@H](O)[C@@H](OC)C(=O)[C@H](C)C[C@H](C)/C=C/C=C/C=C/1C [Sirolimus] (30 nM) | 60.8% | 48.5% | 29% | 46.8% | 56.1% | 29.3% | – | – | – | – | – | –
13 | CN1CCN(c2nc(C3=C(c4c[nH]c5ccccc45)C(=O)NC3=O)c3ccccc3n2)CC1 [Sotrastaurin] (300 nM) | 56.9% | 99.9% | 96.2% | 120% | 117% | 87% | – | – | – | – | – | –
14 | CC/C(=C(\c1ccccc1)c1ccc(OCCN(C)C)cc1)c1ccccc1 [Tamoxifen] (300 nM) | 93.8% | 113% | 97.8% | 112% | 106% | 89.5% | – | – | – | – | – | –
15 | COc1cc2c(N3CCN(C(=O)Nc4ccc(OC(C)C)cc4)CC3)ncnc2cc1OCCCN1CCCCC1 [Tandutinib] (30 nM) | 70.4% | 96.3% | 108% | 103% | 110% | 106% | – | – | – | – | – | –
16 | C[C@@H](C(=O)O)c1ccc(-c2ccccc2)c(F)c1 [Tarenflurbil] (300 nM) | 64.5% | 89.8% | 104% | 93.6% | 101% | 117% | – | – | – | – | – | –
17 | Cn1nnc2c(C(N)=O)ncn2c1=O [Temozolomide] (300 nM) | 72.5% | 116% | 93.8% | 89.2% | 104% | 88.4% | – | – | – | – | – | –
18 | CC[C@@H]1C(=O)N(C)c2cnc(Nc3ccc(C(=O)N[C@H]4CC[C@H](N5CCN(CC6CC6)CC5)CC4)cc3OC)nc2N1C(C)C [Volasertib] (30 nM) | 49.7% | 58.8% | 31.5% | 25.4% | 45.9% | 40.5% | – | – | – | – | – | –
